For five molecules, Kd results are on record in ChEMBL document CHEMBL3991601, “The target landscape of clinical kinase drugs” (Science, 2017).

The target in one test is Ephrin type-A receptor 2 (Homo sapiens, UniProt P29317).
The next test addresses T1, Ephrin type-B receptor 2 (Homo sapiens, UniProt P29323).
T1 sequence (P29323 whole entry): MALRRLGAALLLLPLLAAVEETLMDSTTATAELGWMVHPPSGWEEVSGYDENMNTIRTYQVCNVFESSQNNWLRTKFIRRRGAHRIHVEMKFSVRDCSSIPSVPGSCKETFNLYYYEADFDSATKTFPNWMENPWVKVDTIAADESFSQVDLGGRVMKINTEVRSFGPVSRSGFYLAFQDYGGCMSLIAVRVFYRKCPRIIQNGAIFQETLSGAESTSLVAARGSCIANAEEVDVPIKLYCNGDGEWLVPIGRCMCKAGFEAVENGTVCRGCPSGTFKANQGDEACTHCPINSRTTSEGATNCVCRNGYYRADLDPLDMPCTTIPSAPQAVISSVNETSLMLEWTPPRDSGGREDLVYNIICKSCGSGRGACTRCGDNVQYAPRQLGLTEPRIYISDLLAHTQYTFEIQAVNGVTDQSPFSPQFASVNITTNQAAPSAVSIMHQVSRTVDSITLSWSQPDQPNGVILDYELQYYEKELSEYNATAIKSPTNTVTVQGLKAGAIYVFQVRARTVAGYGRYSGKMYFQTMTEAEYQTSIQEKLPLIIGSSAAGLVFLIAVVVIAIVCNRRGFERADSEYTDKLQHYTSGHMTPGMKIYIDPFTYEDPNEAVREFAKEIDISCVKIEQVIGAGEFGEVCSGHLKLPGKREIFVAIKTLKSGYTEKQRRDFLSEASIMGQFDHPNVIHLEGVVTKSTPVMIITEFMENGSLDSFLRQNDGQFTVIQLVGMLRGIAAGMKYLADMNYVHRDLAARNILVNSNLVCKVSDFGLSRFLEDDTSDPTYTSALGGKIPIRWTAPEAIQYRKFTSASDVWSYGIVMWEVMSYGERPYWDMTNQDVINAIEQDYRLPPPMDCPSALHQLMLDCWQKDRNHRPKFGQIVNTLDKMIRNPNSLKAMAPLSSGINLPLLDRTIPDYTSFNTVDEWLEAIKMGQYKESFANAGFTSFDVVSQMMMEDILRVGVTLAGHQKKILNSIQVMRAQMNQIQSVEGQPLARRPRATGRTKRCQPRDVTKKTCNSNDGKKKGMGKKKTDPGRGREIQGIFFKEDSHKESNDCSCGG

In test [1] the target is Glycogen synthase kinase-3 beta (Homo sapiens, UniProt P49841).
Test [2] addresses Inosine-5'-monophosphate dehydrogenase 2 (Homo sapiens, UniProt P12268).
The target of test [3] is T2, Serine/threonine-protein kinase NLK (Homo sapiens, UniProt Q9UBE8).
T2 sequence (Q9UBE8 whole entry): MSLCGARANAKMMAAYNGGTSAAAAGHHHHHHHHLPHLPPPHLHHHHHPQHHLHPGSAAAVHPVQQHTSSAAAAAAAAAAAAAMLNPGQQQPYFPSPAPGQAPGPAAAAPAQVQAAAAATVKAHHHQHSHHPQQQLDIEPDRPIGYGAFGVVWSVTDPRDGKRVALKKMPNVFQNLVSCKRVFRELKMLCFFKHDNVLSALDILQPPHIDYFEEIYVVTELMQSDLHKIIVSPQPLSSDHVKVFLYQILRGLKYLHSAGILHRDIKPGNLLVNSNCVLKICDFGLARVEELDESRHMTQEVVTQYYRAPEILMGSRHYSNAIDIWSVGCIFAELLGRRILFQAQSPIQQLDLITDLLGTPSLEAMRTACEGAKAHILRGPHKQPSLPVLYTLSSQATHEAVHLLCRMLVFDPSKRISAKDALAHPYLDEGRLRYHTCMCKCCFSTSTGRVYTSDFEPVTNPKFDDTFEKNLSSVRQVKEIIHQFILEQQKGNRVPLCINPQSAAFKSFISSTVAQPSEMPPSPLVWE

Test [4] has as its target T3, ATP-dependent 6-phosphofructokinase, platelet type (Homo sapiens, UniProt Q01813).
T3 sequence (Q01813 whole entry): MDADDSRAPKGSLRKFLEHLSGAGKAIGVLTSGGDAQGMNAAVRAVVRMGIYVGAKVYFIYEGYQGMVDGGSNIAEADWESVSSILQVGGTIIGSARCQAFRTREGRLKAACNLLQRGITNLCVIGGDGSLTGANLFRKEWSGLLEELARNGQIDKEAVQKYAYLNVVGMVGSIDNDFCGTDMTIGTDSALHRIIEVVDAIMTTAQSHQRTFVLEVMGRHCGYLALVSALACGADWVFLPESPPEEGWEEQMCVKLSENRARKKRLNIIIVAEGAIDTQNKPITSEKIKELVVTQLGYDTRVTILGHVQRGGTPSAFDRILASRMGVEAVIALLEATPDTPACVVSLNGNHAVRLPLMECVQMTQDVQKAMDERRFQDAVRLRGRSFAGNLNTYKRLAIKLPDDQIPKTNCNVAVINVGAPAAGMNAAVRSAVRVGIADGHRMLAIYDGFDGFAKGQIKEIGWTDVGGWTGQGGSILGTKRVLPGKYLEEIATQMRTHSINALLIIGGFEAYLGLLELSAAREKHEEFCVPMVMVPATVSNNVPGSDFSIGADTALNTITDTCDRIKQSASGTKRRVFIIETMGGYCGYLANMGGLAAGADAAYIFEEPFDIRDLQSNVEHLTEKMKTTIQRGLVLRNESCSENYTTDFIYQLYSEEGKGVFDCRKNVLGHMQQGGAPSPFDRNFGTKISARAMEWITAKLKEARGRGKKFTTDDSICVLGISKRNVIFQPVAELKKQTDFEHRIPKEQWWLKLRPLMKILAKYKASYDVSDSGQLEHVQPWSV

Test [5] deals with Protein-tyrosine kinase 6 (Homo sapiens, UniProt Q13882).
Test [6] addresses Serine/threonine-protein kinase 16 (Homo sapiens, UniProt O75716).
Test [7] concerns the target DNA topoisomerase 2-alpha (Homo sapiens, UniProt P11388).

Structures are written as SMILES. Active and inactive are the calls of the source. Rule as the data show it, for most assays here: actives have a measured Kd and inactives only a lower limit.
Also: in the data inactive means no Kd found up to 30 µM.

Sequence of Protein-tyrosine kinase 6 (Q13882 whole entry): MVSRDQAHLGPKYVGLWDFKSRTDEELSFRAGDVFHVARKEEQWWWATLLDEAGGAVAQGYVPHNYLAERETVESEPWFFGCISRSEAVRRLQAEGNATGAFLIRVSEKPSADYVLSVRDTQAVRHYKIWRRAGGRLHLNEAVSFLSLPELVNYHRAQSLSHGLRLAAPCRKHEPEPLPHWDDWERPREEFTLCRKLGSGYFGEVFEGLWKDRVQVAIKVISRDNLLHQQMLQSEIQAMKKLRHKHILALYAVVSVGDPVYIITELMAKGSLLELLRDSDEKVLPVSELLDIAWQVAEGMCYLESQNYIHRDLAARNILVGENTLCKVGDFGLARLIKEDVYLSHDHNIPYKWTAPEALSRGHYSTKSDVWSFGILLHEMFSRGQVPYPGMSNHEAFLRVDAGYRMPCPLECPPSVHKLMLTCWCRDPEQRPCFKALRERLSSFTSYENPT
Sequence of Serine/threonine-protein kinase 16 (O75716 whole entry): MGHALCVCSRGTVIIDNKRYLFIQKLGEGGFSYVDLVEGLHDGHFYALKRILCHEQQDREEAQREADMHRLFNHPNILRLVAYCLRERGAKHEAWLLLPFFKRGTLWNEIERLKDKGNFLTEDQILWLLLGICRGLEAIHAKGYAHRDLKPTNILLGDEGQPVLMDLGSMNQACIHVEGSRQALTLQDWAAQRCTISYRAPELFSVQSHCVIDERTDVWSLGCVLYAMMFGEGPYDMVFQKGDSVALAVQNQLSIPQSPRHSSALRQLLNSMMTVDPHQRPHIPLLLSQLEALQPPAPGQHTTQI
Sequence of DNA topoisomerase 2-alpha (P11388 whole entry): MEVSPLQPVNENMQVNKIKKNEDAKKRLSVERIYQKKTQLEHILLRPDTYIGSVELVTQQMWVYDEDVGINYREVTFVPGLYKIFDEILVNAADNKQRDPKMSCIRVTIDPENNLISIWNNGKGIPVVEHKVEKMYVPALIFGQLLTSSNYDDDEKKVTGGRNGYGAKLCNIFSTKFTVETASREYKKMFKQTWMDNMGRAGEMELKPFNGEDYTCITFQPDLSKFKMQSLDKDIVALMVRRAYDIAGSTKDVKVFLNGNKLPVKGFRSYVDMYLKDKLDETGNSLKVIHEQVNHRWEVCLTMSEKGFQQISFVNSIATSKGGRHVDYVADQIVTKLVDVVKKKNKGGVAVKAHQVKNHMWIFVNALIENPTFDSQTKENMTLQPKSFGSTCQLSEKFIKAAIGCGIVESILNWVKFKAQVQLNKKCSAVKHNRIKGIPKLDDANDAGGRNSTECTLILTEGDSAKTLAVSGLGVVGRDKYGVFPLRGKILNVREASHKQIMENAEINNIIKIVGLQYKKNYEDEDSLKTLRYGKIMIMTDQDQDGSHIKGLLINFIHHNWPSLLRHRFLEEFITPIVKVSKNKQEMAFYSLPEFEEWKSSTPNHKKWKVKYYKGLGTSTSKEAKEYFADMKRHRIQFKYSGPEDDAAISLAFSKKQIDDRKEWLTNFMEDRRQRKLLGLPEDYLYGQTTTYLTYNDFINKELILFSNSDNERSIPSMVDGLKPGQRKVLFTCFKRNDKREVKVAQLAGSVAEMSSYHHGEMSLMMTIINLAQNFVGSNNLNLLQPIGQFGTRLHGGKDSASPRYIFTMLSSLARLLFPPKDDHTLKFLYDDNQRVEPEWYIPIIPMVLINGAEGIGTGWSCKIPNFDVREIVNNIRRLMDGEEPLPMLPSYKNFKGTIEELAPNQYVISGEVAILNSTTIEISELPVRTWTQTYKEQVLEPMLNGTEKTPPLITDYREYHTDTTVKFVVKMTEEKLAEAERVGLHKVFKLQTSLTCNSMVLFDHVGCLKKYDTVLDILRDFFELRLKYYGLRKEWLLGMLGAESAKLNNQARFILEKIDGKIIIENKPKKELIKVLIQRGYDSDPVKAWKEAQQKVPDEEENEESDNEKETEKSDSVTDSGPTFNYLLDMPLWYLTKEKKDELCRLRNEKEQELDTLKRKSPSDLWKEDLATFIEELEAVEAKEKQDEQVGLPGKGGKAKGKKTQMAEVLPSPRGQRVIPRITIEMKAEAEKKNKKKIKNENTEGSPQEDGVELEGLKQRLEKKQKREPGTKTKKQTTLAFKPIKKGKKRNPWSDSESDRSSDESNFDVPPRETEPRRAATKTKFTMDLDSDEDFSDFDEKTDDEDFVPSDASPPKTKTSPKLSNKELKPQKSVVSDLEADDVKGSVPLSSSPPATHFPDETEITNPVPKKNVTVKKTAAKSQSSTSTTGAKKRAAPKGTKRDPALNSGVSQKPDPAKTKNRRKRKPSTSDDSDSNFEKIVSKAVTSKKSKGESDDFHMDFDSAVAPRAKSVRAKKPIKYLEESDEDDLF
Sequence of Glycogen synthase kinase-3 beta (P49841 whole entry): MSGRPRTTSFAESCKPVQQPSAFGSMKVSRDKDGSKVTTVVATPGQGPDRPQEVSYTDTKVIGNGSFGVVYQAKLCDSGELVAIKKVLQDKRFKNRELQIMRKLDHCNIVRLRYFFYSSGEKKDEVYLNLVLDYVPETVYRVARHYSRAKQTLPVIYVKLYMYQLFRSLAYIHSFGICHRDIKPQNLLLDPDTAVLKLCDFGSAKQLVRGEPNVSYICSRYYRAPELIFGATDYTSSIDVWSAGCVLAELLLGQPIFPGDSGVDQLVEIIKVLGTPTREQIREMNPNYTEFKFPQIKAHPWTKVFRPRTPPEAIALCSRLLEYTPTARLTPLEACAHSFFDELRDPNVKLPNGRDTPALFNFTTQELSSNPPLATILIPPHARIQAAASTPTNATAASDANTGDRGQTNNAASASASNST
Sequence of Ephrin type-A receptor 2 (P29317 whole entry): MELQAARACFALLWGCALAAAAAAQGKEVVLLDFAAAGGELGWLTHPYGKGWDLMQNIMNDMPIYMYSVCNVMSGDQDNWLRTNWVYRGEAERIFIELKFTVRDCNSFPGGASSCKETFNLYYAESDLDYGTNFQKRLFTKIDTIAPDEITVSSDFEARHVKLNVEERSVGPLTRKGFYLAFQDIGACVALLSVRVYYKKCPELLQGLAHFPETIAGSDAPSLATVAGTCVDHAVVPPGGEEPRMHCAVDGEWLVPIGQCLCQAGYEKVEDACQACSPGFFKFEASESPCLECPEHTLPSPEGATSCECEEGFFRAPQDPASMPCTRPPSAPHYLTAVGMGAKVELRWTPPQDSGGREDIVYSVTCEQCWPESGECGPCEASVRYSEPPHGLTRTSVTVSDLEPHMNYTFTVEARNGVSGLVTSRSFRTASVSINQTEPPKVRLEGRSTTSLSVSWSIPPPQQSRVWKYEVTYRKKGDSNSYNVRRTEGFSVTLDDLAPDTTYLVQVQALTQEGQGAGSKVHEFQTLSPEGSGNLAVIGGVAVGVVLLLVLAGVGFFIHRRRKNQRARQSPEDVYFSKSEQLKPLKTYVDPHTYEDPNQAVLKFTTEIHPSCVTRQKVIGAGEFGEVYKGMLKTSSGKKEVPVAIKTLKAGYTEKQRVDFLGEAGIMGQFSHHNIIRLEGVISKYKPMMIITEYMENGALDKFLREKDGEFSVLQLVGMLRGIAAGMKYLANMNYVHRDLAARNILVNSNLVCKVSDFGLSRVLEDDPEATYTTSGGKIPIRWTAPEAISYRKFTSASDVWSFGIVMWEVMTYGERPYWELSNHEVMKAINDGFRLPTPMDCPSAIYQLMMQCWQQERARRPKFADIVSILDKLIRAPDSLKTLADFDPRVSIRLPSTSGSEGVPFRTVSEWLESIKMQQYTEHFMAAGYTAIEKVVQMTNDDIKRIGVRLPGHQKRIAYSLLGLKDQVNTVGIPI

On to `O=C(Nc1ccc(-c2ccnc(Nc3ccc(N4CCOCC4)cc3)n2)cc1)C1CCCN1` (stereo not given) [XL-019], for which the Kd (in general, the free concentration of one partner at which half of the binding sites on the other are occupied at equilibrium, for simple one-to-one binding) is > 30 µM (inactive) on Ephrin type-A receptor 2; > 30 µM (inactive) on Ephrin type-B receptor 2; > 30 µM (inactive) in test [1]; > 30 µM (inactive) in [2]; 0.027 µM in test [3]; > 30 µM (inactive) in test [4]. Further, the Kd in [5], in test [6] and in [7] was > 30 µM (inactive) throughout.

With `Cc1cc([C@@H](C)Nc2ccccc2C(=O)O)c2nc(N3CCOCC3)cc(=O)n2c1` [AZD-6482], the Kd (at Ephrin type-A receptor 2; at Ephrin type-B receptor 2; in test [1]; in [2]; in test [3]; in test [4]) was > 30 µM (inactive) in each case. The Kd in test [5], in [6] and in test [7] was > 30 µM (inactive) each time.

With `CCN1CCN(Cc2ccc(-c3cc4c(N[C@H](C)c5ccccc5)ncnc4[nH]3)cc2)CC1` [AEE-788], the Kd (on Ephrin type-A receptor 2; at Ephrin type-B receptor 2; in test [1]; in test [2]; in test [3]; in test [4]) was > 30 µM (inactive) in each case. Also, the Kd in test [5], in test [6] and in test [7] was > 30 µM (inactive) each time.

In the case of `CC(=O)Nc1cccc(-n2c(=O)n(C3CC3)c(=O)c3c(Nc4ccc(I)cc4F)n(C)c(=O)c(C)c32)c1` [TRAMETINIB], the Kd (on Ephrin type-A receptor 2; at Ephrin type-B receptor 2; in test [1]; in test [2]; in test [3]; in test [4]) was > 30 µM (inactive) in each case. For the same molecule, the Kd in test [5], in test [6] and in test [7] was > 30 µM (inactive) in each case.

`CNS(=O)(=O)Nc1nccc(Cc2c(C)c3ccc(Oc4ncccn4)cc3oc2=O)c1F` [AVUTOMETINIB]: the Kd (on Ephrin type-A receptor 2; on Ephrin type-B receptor 2; in test [1]; in test [2]; in test [3]; in [4]) was > 30 µM (inactive) throughout. The Kd in test [5], in test [6] and in test [7] was > 30 µM (inactive) each time.
